{"source": "patent US20070178532A1", "about": "(priority 2003, published 2007)", "key": {"[1]": {"test_system": "tetramer-positive T cells from PBMC of HAM/TSP patients", "test": "CD27 and CD45RA expression in HLA-GFP-acquiring tetramer-positive T cells after peptide presentation by HmyA2GFP cells", "assay_type": "cell-based, human"}, "[2]": {"test_system": "tetramer-positive T cells from PBMC of HAM/TSP patients", "test": "intracellular perforin staining of tetramer-positive T cells (FACS)", "assay_type": "cell-based, human", "method": "The above-described phenotypically defined T cell populations were further characterized with respect to perforin expression and cytolytic activity. For intracellular perforin staining, cells were fixed and permeabilization with Cytofix/CytoPerm kit (BD Pharmingen), and stained with monoclonal antibody specific for perforin (BD Pharmingen). The cells were subjected to further FACS analysis and the resulting data was analyzed with Cellquest software (Becton Dickinson) to obtain the mean fluorescence intensity (MFI) for the cell populations."}, "PBMCs": {"test_system": "PBMCs", "test": "peptide loaded HLA-A*201 tetramer analysis of PBMCs (FACS)", "details": "PBMC of HAM/TSP patient #5"}, "CD8+ T cells in PBMCs": {"test_system": "CD8+ T cells in PBMCs", "test": "HLA-GFP acquisition by CD8+ T cells in PBMCs mixed with peptide-pulsed HmyA2GFP cells (FACS)", "details": "PBMC of HAM/TSP patient #5"}, "[3]": {"details": "CMV tetramer-positive cells, After contact with HmyA2GFP cells (1 hour)"}, "[4]": {"details": "HLA-GFP-acquiring tetramer-positive cells after stimulation with peptide-pulsed HmyA2GFP cells"}}}
{"sequence": "NLVPMVATV [CMV pp65]", "values": [{"measurement": "% CD27+ CD4SRA−", "setting": "[1]; [3]", "value": 2.51, "unit": "%"}, {"measurement": "% CD27+ CD45RA+", "setting": "[1]; [3]", "value": 3.05, "unit": "%"}, {"measurement": "% CD27− CD45RA+", "setting": "[1]; [3]", "value": 42.625, "unit": "%"}, {"measurement": "% CD27− CD45RA−", "setting": "[1]; [3]", "value": 51.813, "unit": "%"}, {"measurement": "change of CD27+CD45RA− (memory) subset", "setting": "[1]; [4]", "value": "concomitant decrease"}, {"measurement": "change of CD27-CD45+ (effector) subset", "setting": "[1]; [4]", "value": "no significant change"}, {"measurement": "change of CD27-CD45RA− (effector/memory) subset", "setting": "[1]; [4]", "value": "significant increase"}, {"measurement": "Perforin Expression Levels (in MFI)", "setting": "[2]; HLA acquiring CMV tetramer-positive cells", "value": 9.543, "unit": "MFI"}, {"measurement": "change in the amount of perforin in virus-specific T cells after peptide stimulation", "setting": "[2]; after stimulation with peptide-pulsed HmyA2GFP cells", "value": "significant decrease"}, {"measurement": "peptide-specific T cells in the PBMCs by tetramer", "setting": "PBMCs", "value": 6.57, "unit": "%"}, {"measurement": "frequency of peptide-specific T cells in the PBMC population by the inventive method", "setting": "CD8+ T cells in PBMCs", "value": 6.34, "unit": "%"}]}
